Source: PubChem BioAssay AID1259407 (Chemical Carcinogenesis Research Information System (CCRIS), 2018)
Activity calls are given as the source filed them. How the calls were made is not given here.

Test system: CCRIS mutagenicity, Ames/micronucleus/aberration tests
Assay: CCRIS mutagenicity studies
[1] = Test System: AMES SALMONELLA TYPHIMURIUM, Strain/Indicator: TA98, Metabolic Activation: NONE, Method: PREINCUBATION
[2] = Test System: AMES SALMONELLA TYPHIMURIUM, Strain/Indicator: TA98, Metabolic Activation: NONE, Method: STANDARD PLATE
[3] = Test System: AMES SALMONELLA TYPHIMURIUM, Strain/Indicator: TA98, Metabolic Activation: RAT, LIVER, S-9, AROCLOR 1254, Method: STANDARD PLATE
[4] = Test System: AMES SALMONELLA TYPHIMURIUM, Strain/Indicator: TA100, Metabolic Activation: HAMSTER, LIVER, S-9, AROCLOR 1254 (30%), Method: PREINCUBATION
[5] = Test System: AMES SALMONELLA TYPHIMURIUM, Strain/Indicator: TA100, Metabolic Activation: NONE, Method: PREINCUBATION
[6] = Test System: AMES SALMONELLA TYPHIMURIUM, Strain/Indicator: TA100, Metabolic Activation: NONE, Method: STANDARD PLATE
[7] = Test System: AMES SALMONELLA TYPHIMURIUM, Strain/Indicator: TA100, Metabolic Activation: RAT, LIVER, S-9, AROCLOR 1254 (30%), Method: PREINCUBATION
[8] = Test System: AMES SALMONELLA TYPHIMURIUM, Strain/Indicator: TA100, Metabolic Activation: RAT, LIVER, S-9, AROCLOR 1254, Method: STANDARD PLATE
[9] = Test System: AMES SALMONELLA TYPHIMURIUM, Strain/Indicator: TA1535, Metabolic Activation: NONE, Method: PREINCUBATION
[10] = Test System: AMES SALMONELLA TYPHIMURIUM, Strain/Indicator: TA1535, Metabolic Activation: NONE, Method: STANDARD PLATE
[11] = Test System: AMES SALMONELLA TYPHIMURIUM, Strain/Indicator: TA1535, Metabolic Activation: RAT, LIVER, S-9, AROCLOR 1254, Method: STANDARD PLATE
[12] = Test System: AMES SALMONELLA TYPHIMURIUM, Strain/Indicator: TA1537, Metabolic Activation: NONE, Method: STANDARD PLATE
[13] = Test System: AMES SALMONELLA TYPHIMURIUM, Strain/Indicator: TA1537, Metabolic Activation: RAT, LIVER, S-9, AROCLOR 1254, Method: STANDARD PLATE

With `O=C1Nc2ccc(Cl)cc2C(c2ccccc2)=NC1O` (configuration not stated) the mutagenic call (End Point: IN VITRO MICRONUCLEUS, Test System: HUMAN - HUMAN AMNIOTIC FLUID FIBROBLAST-LIKE (AFFL) CELLS, Metabolic Activation: NONE) was “active; positive”, the mutagenic call (End Point: IN VITRO MICRONUCLEUS, Test System: MOUSE LYMPHOMA L5178Y CELLS, Metabolic Activation: NONE) was “active; positive” and the mutagenic call (End Point: IN VITRO MICRONUCLEUS, Test System: SYRIAN HAMSTER EMBRYO FIBROBLAST (SHE) CELLS, Metabolic Activation: NONE) was “active; positive”. For the same molecule, the mutagenic call (Test System: AMES SALMONELLA TYPHIMURIUM, Strain/Indicator: TA97, Metabolic Activation: HAMSTER, LIVER, S-9, AROCLOR 1254 (10%), Method: PREINCUBATION) was “inactive; negative”, the mutagenic call (Test System: AMES SALMONELLA TYPHIMURIUM, Strain/Indicator: TA97, Metabolic Activation: HAMSTER, LIVER, S-9, AROCLOR 1254 (30%), Method: PREINCUBATION) was “inactive; negative” and the mutagenic call (Test System: AMES SALMONELLA TYPHIMURIUM, Strain/Indicator: TA97, Metabolic Activation: NONE, Method: PREINCUBATION) was “inactive; negative”. For the same molecule, the mutagenic call (Test System: AMES SALMONELLA TYPHIMURIUM, Strain/Indicator: TA97, Metabolic Activation: RAT, LIVER, S-9, AROCLOR 1254 (30%), Method: PREINCUBATION) was “inactive; negative”, the mutagenic call (Test System: AMES SALMONELLA TYPHIMURIUM, Strain/Indicator: TA98, Metabolic Activation: HAMSTER, LIVER, S-9, AROCLOR 1254 (10 OR 30%), Method: PREINCUBATION) was “inactive; negative” and the mutagenic call [1] was “inactive; negative”. The mutagenic call [2] was “inactive; negative”, the mutagenic call (Test System: AMES SALMONELLA TYPHIMURIUM, Strain/Indicator: TA98, Metabolic Activation: RAT, LIVER, S-9, AROCLOR 1254 (10 OR 30%), Method: PREINCUBATION) was “inactive; negative” and the mutagenic call [3] was “inactive; negative”. For the same molecule, the mutagenic call (Test System: AMES SALMONELLA TYPHIMURIUM, Strain/Indicator: TA100, Metabolic Activation: HAMSTER, LIVER, S-9, AROCLOR 1254 (10%), Method: PREINCUBATION) was “inactive; negative”, the mutagenic call [4] was “inactive; negative” and the mutagenic call [5] was “inactive; negative”. For the same molecule, the mutagenic call [6] was “inactive; negative”, the mutagenic call (Test System: AMES SALMONELLA TYPHIMURIUM, Strain/Indicator: TA100, Metabolic Activation: RAT, LIVER, S-9, AROCLOR 1254 (10%), Method: PREINCUBATION) was “inactive; negative” and the mutagenic call [7] was “inactive; negative”. For the same molecule, the mutagenic call [8] was “inactive; negative”, the mutagenic call (Test System: AMES SALMONELLA TYPHIMURIUM, Strain/Indicator: TA102, Metabolic Activation: HAMSTER, LIVER, S-9, AROCLOR 1254 (10%), Method: PREINCUBATION) was “inactive; negative” and the mutagenic call (Test System: AMES SALMONELLA TYPHIMURIUM, Strain/Indicator: TA102, Metabolic Activation: HAMSTER, LIVER, S-9, AROCLOR 1254 (30%), Method: PREINCUBATION) was “inactive; negative”. For the same molecule, the mutagenic call (Test System: AMES SALMONELLA TYPHIMURIUM, Strain/Indicator: TA102, Metabolic Activation: NONE, Method: PREINCUBATION) was “inactive; negative”, the mutagenic call (Test System: AMES SALMONELLA TYPHIMURIUM, Strain/Indicator: TA102, Metabolic Activation: RAT, LIVER, S-9, AROCLOR 1254 (10%), Method: PREINCUBATION) was “inactive; negative” and the mutagenic call (Test System: AMES SALMONELLA TYPHIMURIUM, Strain/Indicator: TA102, Metabolic Activation: RAT, LIVER, S-9, AROCLOR 1254 (30%), Method: PREINCUBATION) was “inactive; negative”. For the same molecule, the mutagenic call (Test System: AMES SALMONELLA TYPHIMURIUM, Strain/Indicator: TA1535, Metabolic Activation: HAMSTER, LIVER, S-9, AROCLOR 1254 (10%), Method: PREINCUBATION) was “inactive; negative”, the mutagenic call (Test System: AMES SALMONELLA TYPHIMURIUM, Strain/Indicator: TA1535, Metabolic Activation: HAMSTER, LIVER, S-9, AROCLOR 1254 (30%), Method: PREINCUBATION) was “inactive; negative” and the mutagenic call [9] was “inactive; negative”. The mutagenic call [10] was “inactive; negative”, the mutagenic call (Test System: AMES SALMONELLA TYPHIMURIUM, Strain/Indicator: TA1535, Metabolic Activation: RAT, LIVER, S-9, AROCLOR 1254 (10%), Method: PREINCUBATION) was “inactive; negative” and the mutagenic call (Test System: AMES SALMONELLA TYPHIMURIUM, Strain/Indicator: TA1535, Metabolic Activation: RAT, LIVER, S-9, AROCLOR 1254 (30%), Method: PREINCUBATION) was “inactive; negative”. For the same molecule, the mutagenic call [11] was “inactive; negative”, the mutagenic call [12] was “inactive; negative” and the mutagenic call [13] was “inactive; negative”.
In the case of `O=c1[nH][nH]c(=O)c2cc([N+](=O)[O-])ccc12`, the mutagenic call (Test System: AMES SALMONELLA TYPHIMURIUM, Strain/Indicator: TA98, Metabolic Activation: HAMSTER, LIVER, S-9, AROCLOR 1254 (30%), Method: PREINCUBATION) is reported as “active; positive”, the mutagenic call [1] is reported as “active; positive” and the mutagenic call (Test System: AMES SALMONELLA TYPHIMURIUM, Strain/Indicator: TA98, Metabolic Activation: RAT, LIVER, S-9, AROCLOR 1254 (30%), Method: PREINCUBATION) is reported as “active; positive”. The mutagenic call [4] was “active; positive”, the mutagenic call [5] was “active; positive” and the mutagenic call [7] was “inactive; negative”.
For `O=C1c2c(O)ccc(O)c2C(=O)C2C(O)=CC=C(O)C12` (configuration not stated), the mutagenic call [2] was “inactive; negative”, the mutagenic call [3] was “inactive; negative” and the mutagenic call [6] was “inactive; negative”. The mutagenic call [8] was “inactive; negative”, the mutagenic call [10] was “inactive; negative” and the mutagenic call [11] was “inactive; negative”. For the same molecule, the mutagenic call [12] was “active; positive” and the mutagenic call (Test System: AMES SALMONELLA TYPHIMURIUM, Strain/Indicator: TA1538, Metabolic Activation: RAT, LIVER, S-9, AROCLOR 1254, Method: STANDARD PLATE) was “inactive; negative”.
`CC(=O)Nc1ccc(N/N=C2/C(=O)c3ccc(NC(=O)Nc4ccc5c(c4)C=C(S(=O)(=O)O)/C(=N/Nc4ccccc4)C5=O)cc3C=C2S(=O)(=O)O)cc1` was tested, and the mutagenic call (Test System: Ames Salmonella typhimurium, Strain/Indicator: TA98, Metabolic Activation: None, Method: Preincubation) was “active; positive”.
In the case of `O=[N+]([O-])c1cccc2cn[nH]c12`, the mutagenic call [2] is reported as “active; positive”.
In the case of `CN(C)CCNS(=O)(=O)c1cccc2cccnc12`, the mutagenic call [2] is reported as “inactive; negative”, the mutagenic call [3] is reported as “inactive; negative” and the mutagenic call [6] is reported as “inactive; negative”. The mutagenic call [8] was “inactive; negative”, the mutagenic call [10] was “inactive; negative” and the mutagenic call [11] was “inactive; negative”. For the same molecule, the mutagenic call [12] was “inactive; negative” and the mutagenic call [13] was “inactive; negative”.
In the case of `N[C@@H](CCC(=O)N[C@@H](CS/C(Cl)=C(\Cl)C(Cl)=C(Cl)Cl)C(=O)NCC(=O)O)C(=O)O`, the mutagenic call [5] is reported as “active; positive”, the mutagenic call [6] is reported as “inactive; negative” and the mutagenic call (Test System: AMES SALMONELLA TYPHIMURIUM, Strain/Indicator: TA100, Metabolic Activation: RAT, KIDNEY, CYTOSOL, Method: PREINCUBATION) is reported as “active; positive”. For the same molecule, the mutagenic call (Test System: AMES SALMONELLA TYPHIMURIUM, Strain/Indicator: TA100, Metabolic Activation: RAT, KIDNEY, MICROSOMES, Method: PREINCUBATION) was “active; positive”, the mutagenic call (Test System: AMES SALMONELLA TYPHIMURIUM, Strain/Indicator: TA100, Metabolic Activation: RAT, KIDNEY, MITOCHONDRIA, Method: PREINCUBATION) was “active; positive” and the mutagenic call (Test System: AMES SALMONELLA TYPHIMURIUM, Strain/Indicator: TA100, Metabolic Activation: RAT, KIDNEY, S-9, AROCLOR 1254, Method: STANDARD PLATE) was “active; positive”.
For `Oc1ccc(Nc2c3ccccc3nc3ccccc23)cc1`, the mutagenic call [12] was “active; positive”.
With `CCN=[N+](C)[O-]` the mutagenic call (Test System: AMES SALMONELLA TYPHIMURIUM, Strain/Indicator: TA1535, Metabolic Activation: HAMSTER, LIVER, S-9, AROCLOR 1254, Method: PREINCUBATION) was “inactive; negative”, the mutagenic call [9] was “inactive; negative” and the mutagenic call (Test System: AMES SALMONELLA TYPHIMURIUM, Strain/Indicator: TA1535, Metabolic Activation: RAT, LIVER, S-9, AROCLOR 1254, Method: PREINCUBATION) was “inactive; negative”.
